Columns and labels:
[1] = target: T1, Probable G-protein coupled receptor 139 (Homo sapiens, UniProt Q6DWJ6); assay: Agonist activity at human GPR139 expressed in CHO-K1 cells assessed as increase in calcium flux by calcium 5 dye based FLIPR assay; assay type: functional, cell-based
T1 sequence (Q6DWJ6 whole entry): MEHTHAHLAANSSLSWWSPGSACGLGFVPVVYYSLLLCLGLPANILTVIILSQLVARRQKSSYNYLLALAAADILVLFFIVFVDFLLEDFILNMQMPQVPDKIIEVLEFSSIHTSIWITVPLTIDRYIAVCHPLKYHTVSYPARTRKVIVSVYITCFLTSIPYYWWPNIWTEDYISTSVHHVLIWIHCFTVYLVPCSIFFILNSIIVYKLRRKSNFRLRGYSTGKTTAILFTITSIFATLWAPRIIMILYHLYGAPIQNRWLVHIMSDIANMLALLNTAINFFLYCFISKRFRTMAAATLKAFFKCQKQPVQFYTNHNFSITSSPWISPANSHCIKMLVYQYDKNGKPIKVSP

[2] = target: T2, Probable G-protein coupled receptor 139 (Homo sapiens) (UniProt Q6DWJ6); assay: Agonist activity at human GPR139 expressed in CHO-K1 cells assessed as increase in calcium flux by calcium 5 dye based FLIPR assay relative to JNJ63533054; assay type: functional, cell-based; conditions: filed as agonist
T2 sequence (whole entry): T1 sequence (Q6DWJ6 whole entry)

[3] = target: T3, Probable G-protein coupled receptor 139 (Rattus norvegicus, UniProt P0C0W8); assay: Agonist activity at rat GPR139 expressed in CHO-K1 cells assessed as increase in calcium flux by calcium 5 dye based FLIPR assay; assay type: cell-based
T3 sequence (P0C0W8 whole entry): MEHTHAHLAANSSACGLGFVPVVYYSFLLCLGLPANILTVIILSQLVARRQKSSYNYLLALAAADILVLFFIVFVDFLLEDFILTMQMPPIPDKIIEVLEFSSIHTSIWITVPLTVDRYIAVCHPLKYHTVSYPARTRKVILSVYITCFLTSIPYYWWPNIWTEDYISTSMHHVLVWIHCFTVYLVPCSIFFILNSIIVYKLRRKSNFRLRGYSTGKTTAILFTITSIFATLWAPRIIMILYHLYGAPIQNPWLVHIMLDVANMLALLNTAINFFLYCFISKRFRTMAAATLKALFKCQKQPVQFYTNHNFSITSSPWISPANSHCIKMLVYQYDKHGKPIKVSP

[4] = target: T4, Probable G-protein coupled receptor 139 (Rattus norvegicus) (UniProt P0C0W8); assay: Agonist activity at rat GPR139 expressed in CHO-K1 cells assessed as increase in calcium flux by calcium 5 dye based FLIPR assay relative to JNJ63533054; assay type: cell-based
T4 sequence (whole entry): T3 sequence (P0C0W8 whole entry)

[5] = target: T1, Probable G-protein coupled receptor 139; assay: Agonist activity at human GPR139 expressed in CHO-K1 cells assessed as induction of beta-arrestin 2 recruitment incubated for 90 mins by PathHunter assay; assay type: cell-based
[6] = target: T2, Probable G-protein coupled receptor 139 (Homo sapiens); assay: Agonist activity at human GPR139 expressed in CHO-K1 cells assessed as induction of beta-arrestin 2 recruitment incubated for 90 mins by PathHunter assay relative to JNJ63533054; assay type: cell-based

Structure (SMILES) | EC50 [1] [nM] | Emax [2] [%] | EC50 [3] [nM] | Emax ([4]; filed as agonist) [%] | EC50 [5] [nM] | Emax ([6]; filed as agonist) [%] | EC50 ([1]; cho-k1) [nM] | EC50 ([3]; cho-k1) [nM] | EC50 ([5]; cho-k1) [nM] | Emax [6] [%] | Emax [4] [%]
C[C@H](NC(=O)Cn1nc2cc(-c3ccccc3)ccn2c1=O)c1ccc(Cl)c(F)c1 | < 1 | > 80 | < 1 | > 80 | < 1 | > 80 |  |  |  |  | 
Cc1ccc2nn(CC(=O)N[C@@H](C)c3ccc(Cl)cc3)c(=O)n2n1 |  | > 80 |  | 50 |  |  | 1 | 1 | 1 | 25 | 
CNc1cccn2c(=O)n(CC(=O)N[C@@H](C)c3ccc(C)cc3)nc12 | < 1 | > 80 | < 1 | > 80 |  | > 80 |  |  | 1 |  | 
Cc1ccc([C@H](C)NC(=O)Cn2nc3c(F)cccn3c2=O)cc1 |  | > 80 |  | 50 | ≥ 100 | 50 | 1 | 1 |  |  | 
COC1CCN(c2ccn3c(=O)n(CC(=O)N[C@@H](C)c4ccc(OC(F)(F)F)cc4)nc3c2)CC1 |  | 50 |  | 50 | ≥ 100 | > 80 | 1 | 1 |  |  | 
Cc1ccc([C@H](C)NC(=O)Cn2nc3ccc(F)cn3c2=O)cc1 | < 1 | > 80 | < 1 | > 80 |  | 50 |  |  | 10 |  | 
C[C@H](NC(=O)Cn1nc2cc(Cl)ccn2c1=O)c1ccc(OC(F)(F)F)cc1 | < 1 | > 80 | < 1 | 50 | < 1 | 50 |  |  |  |  | 
C[C@H](NC(=O)Cn1nc2ncccn2c1=O)c1ccc(C2CC2)c(F)c1 |  | > 80 |  |  | ≥ 100 | 50 | 1 | 10 |  |  | 25
C[C@@H](NC(=O)Cn1nc2ccccn2c1=O)c1ccc(Cl)c(F)c1 | ≥ 100 | > 80 | < 1 | 50 | ≥ 100 |  |  |  |  | 25 | 
Cc1ccc([C@H](C)NC(=O)Cn2nc3cc(C)ccn3c2=O)cc1 | < 1 | > 80 | < 1 | 50 |  | 50 |  |  | 1 |  | 
COc1ccn2c(=O)n(CC(=O)N[C@@H](C)c3ccc(C)cc3)nc2c1 | < 1 | > 80 | < 1 | 50 |  | 50 |  |  | 1 |  | 
Cc1cnn2c(=O)n(CC(=O)N[C@@H](C)c3ccc(Cl)c(F)c3)nc2c1C | < 1 | > 80 | < 1 | > 80 | < 1 | 50 |  |  |  |  | 
C[C@H](NC(=O)Cn1nc2c(NCC(F)F)ccnn2c1=O)c1ccc(OC(F)(F)F)cc1 | < 1 | > 80 |  |  |  |  |  | 1 | 1 | 25 | 25
C[C@H](NC(=O)Cn1nc2ccc(F)cn2c1=O)c1ccc(Cl)c(F)c1 | < 1 | > 80 | < 1 | > 80 |  | > 80 |  |  | 1 |  | 
Cc1ccc([C@H](C)NC(=O)Cn2nc3ccccn3c2=O)cc1 |  | > 80 |  | 50 |  | 50 | 1 | 1 | 10 |  | 
O=C(Cn1nc2cccnn2c1=O)NC1(c2ccc(Cl)cc2)CC1 | ≥ 100 | 50 | ≥ 100 | 50 | ≥ 100 |  |  |  |  | < 25 | 
C[C@H](NC(=O)Cn1nc2cc(N3CCCCC3)ccn2c1=O)c1ccc(OC(F)(F)F)cc1 | < 1 | 50 | < 1 | > 80 | ≥ 100 | > 80 |  |  |  |  | 
Cc1cnc2nn(CC(=O)N[C@@H](C)c3ccc(OC(F)(F)F)c(F)c3)c(=O)n2c1 |  | > 80 |  |  |  | 50 | 1 | 10 | 1 |  | 25
Cc1ccc([C@H](C)NC(=O)Cn2nc3cc(Cl)ccn3c2=O)cc1 | < 1 | > 80 |  | 50 |  | 50 |  | 1 | 1 |  | 

Structure (SMILES) | EC50 [1] [nM] | Emax [2] [%] | EC50 [3] [nM] | Emax ([4]; filed as agonist) [%] | EC50 [5] [nM] | Emax ([6]; filed as agonist) [%] | EC50 ([1]; cho-k1) [nM] | EC50 ([3]; cho-k1) [nM] | EC50 ([5]; cho-k1) [nM] | Emax [6] [%] | Emax [4] [%]
C[C@H](NC(=O)Cn1nc2cc(N3CCC[C@H](O)C3)ccn2c1=O)c1ccc(OC(F)(F)F)cc1 |  | > 80 |  | > 80 | ≥ 100 | > 80 | 1 | 1 |  |  | 
COc1cccn2c(=O)n(CC(=O)N[C@@H](C)c3ccc(C)cc3)nc12 | < 1 | > 80 |  | 50 | < 1 | 50 |  | 1 |  |  | 
C[C@H](NC(=O)Cn1nc2c(C(F)F)nccn2c1=O)c1ccc(OC(F)(F)F)cc1 |  | > 80 | ≥ 100 | 50 | < 1 |  | 1 |  |  | 25 | 
C[C@H](NC(=O)Cn1nc2cc(N3CCC[C@@H](O)C3)ccn2c1=O)c1ccc(OC(F)(F)F)cc1 |  | > 80 |  | > 80 | ≥ 100 | > 80 | 1 | 1 |  |  | 
Cc1ccnc2nn(CC(=O)N[C@@H](C)c3ccc(Cl)c(F)c3)c(=O)n12 | < 1 | > 80 |  | 50 |  | 50 |  | 10 | 1 |  | 
COc1ccn2c(=O)n(CC(=O)N[C@@H](C)c3ccc(Cl)c(F)c3)nc2c1 | < 1 | > 80 | < 1 | 50 |  | > 80 |  |  | 1 |  | 
Cc1ccc([C@H](C)NC(=O)Cn2nc3cccnn3c2=O)cc1 |  | > 80 |  | 50 | ≥ 100 |  | 10 | 1 |  | 25 | 
COc1cnc2nn(CC(=O)N[C@@H](C)c3ccc(OC(F)(F)F)cc3)c(=O)n2c1 |  | > 80 | ≥ 100 |  |  |  | 1 |  | 1 | 25 | < 25
Cc1ccn2c(=O)n(CC(=O)N[C@@H](C)c3ccc(Cl)c(F)c3)nc2n1 |  | > 80 | ≥ 100 | 50 |  |  | 1 |  | 1 | 25 | 
C[C@H](NC(=O)Cn1nc2cc(C3CC3)cnn2c1=O)c1ccc(Cl)c(F)c1 | < 1 | > 80 | < 1 | > 80 |  | > 80 |  |  | 1 |  | 
C[C@H](NC(=O)Cn1nc2cc(N3CCN(C)CC3)ccn2c1=O)c1ccc(OC(F)(F)F)cc1 | ≥ 100 | 50 | ≥ 100 | 50 | ≥ 100 |  |  |  |  | 25 | 
COc1nc2nn(CC(=O)N[C@@H](C)c3ccc(Cl)c(F)c3)c(=O)n2cc1C | < 1 | > 80 | < 1 | > 80 | < 1 | > 80 |  |  |  |  | 
COc1ccn2c(=O)n(CC(=O)N[C@@H](C)c3ccc(OC(F)(F)F)cc3)nc2n1 | < 1 | 50 |  |  | < 1 |  |  | 1 |  | 25 | 25
Cc1cc(Cl)ccc1[C@H](C)NC(=O)Cn1nc2ncccn2c1=O |  | > 80 | ≥ 100 |  | ≥ 100 | 50 | 1 |  |  |  | 25
C[C@H](NC(=O)Cn1nc2ccccn2c1=O)c1cnc(C(F)(F)F)nc1 | ≥ 100 | 50 | ≥ 100 |  | ≥ 100 |  |  |  |  | 25 | < 25
C[C@H](NC(=O)Cn1nc2cc(N3CCOCC3)cnn2c1=O)c1ccc(Cl)c(F)c1 |  | > 80 |  | > 80 | ≥ 100 |  | 1 | 1 |  | 25 | 
C[C@H](NC(=O)Cn1nc2ccc(F)cn2c1=O)c1ccc(OC(F)(F)F)cc1 | < 1 | > 80 |  | 50 |  | 50 |  | 1 | 1 |  | 
COc1ccn2c(=O)n(CC(=O)N[C@@H](C)c3c(C)cc(C)cc3C)nc2c1 | ≥ 100 | 50 |  |  |  |  |  | 10 | 10 | 25 | 25
